Reference: patent US20260240842A1, “METHODS TO PREVENT THERAPY RESISTANCE IN MELANOMA VIA BLOCKING GENOMIC INSTABILITY” (THE REGENTS OF THE UNIVERSITY OF CALIFORNIA, priority 2022, published 2026)

System: HSR harboring BRAF in M249 cells
Test: Metaphase DNA-FISH tracking emergence of BRAF HSR
Assay type: cell-based, human
Settings: M249, day 31; DNA-PKi and/or PARPi given in combination with BRAFi+MEKi; FIG. 5G
From the text: FIGS. 5A-5H. Resistance-driver ecDNAs and HSRs dynamically track with resistance and DNA-PKi prevents size-expansion of ecDNAs and CGRs early on MAPKi treatment. FIGS. 5A to 5C, Metaphase DNA-FISH of paired parental and acquired resistant BRAF^V600MUT (5A and 5B) or NRAS^Q61MUT (5C) cell lines without or with drug withdrawal showing ecDNA- or HSR-amplicons harboring BRAF, RAF1 or NRAS. Left, representative images; right, quantifications per cell. Ruler, 15 μm. P values (Unpaired two-tailed Student's t-test): *, p<0.05; **, p<0.01; ***, p<0.001. FIGS. 5D to 5F: Three- (upper) and six-(lower) day MTT assay of indicated cell lines treated with graded concentrations of BRAFi+MEKi (5D and 5E) or MEKi (5F). Cell viability was normalized to respective DMSO/vehicle group. Inner brackets, comparisons between acquired-resistant sub-lines without and with drug withdrawal. Outer brackets, comparisons between acquired-resistant sub-lines and their isogenic parental cell lines. […] FIG. 5G: Representative images (left) and quantification (right) of metaphase DNA-FISH showing HSR harboring BRAF in M249 cells treated with vehicle or BRAFi+MEKi, with or without NU7026 and/or ABT888 for 31 days. […] FIG. 5H: Average total genomic spans of treatment-specific ecDNAs+CGRs in M229 and M245 cell lines (background ecDNA+CGR spans detected in vehicle-treated cells were filtered). […]

| Structure (SMILES) | BRAF HSRs early on treatment |
| --- | --- |
| O=c1cc(N2CCOCC2)oc2c1ccc1ccccc12 [NU7026] | suppression |
| C[C@]1(c2nc3c(C(N)=O)cccc3[nH]2)CCCN1 [ABT888, veliparib] | suppression |
